Test results reported in publication PMC4498814, “Genetic Evidence for Function of the bHLH-PAS Protein Gce/Met As a Juvenile Hormone Receptor” (PLoS Genetics, 2015).
Like-named read-outs stand apart in the source and are kept apart here.

Columns and labels:
[1] = biological target: T1, Gce (germ cell-expressed) (Drosophila melanogaster, UniProt Q9VXW7); experiment: [3H]JH III radioligand saturation binding, dextran-coated charcoal assay
T1 construct: amino acids 1–689, translated in vitro
T1 sequence (Q9VXW7 269-959): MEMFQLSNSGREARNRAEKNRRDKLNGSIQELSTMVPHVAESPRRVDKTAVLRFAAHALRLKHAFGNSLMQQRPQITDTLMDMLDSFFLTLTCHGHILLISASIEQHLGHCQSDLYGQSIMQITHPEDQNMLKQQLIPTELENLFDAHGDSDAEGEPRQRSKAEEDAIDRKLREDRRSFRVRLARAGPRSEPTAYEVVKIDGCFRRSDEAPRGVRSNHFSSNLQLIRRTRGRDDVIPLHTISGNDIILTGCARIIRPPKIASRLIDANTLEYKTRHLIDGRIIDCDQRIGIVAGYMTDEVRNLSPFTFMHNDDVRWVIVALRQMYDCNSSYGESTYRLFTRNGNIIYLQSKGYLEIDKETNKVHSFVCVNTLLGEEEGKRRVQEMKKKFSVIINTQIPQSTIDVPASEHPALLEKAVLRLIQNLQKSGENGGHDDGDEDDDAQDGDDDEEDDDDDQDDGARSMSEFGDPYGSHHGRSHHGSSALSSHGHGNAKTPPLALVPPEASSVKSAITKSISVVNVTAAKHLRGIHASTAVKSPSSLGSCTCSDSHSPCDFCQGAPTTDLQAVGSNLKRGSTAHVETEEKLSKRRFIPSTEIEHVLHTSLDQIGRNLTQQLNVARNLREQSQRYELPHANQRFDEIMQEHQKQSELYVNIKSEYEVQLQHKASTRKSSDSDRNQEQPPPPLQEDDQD

[2] = biological target: T2, Met (Methoprene-tolerant) (Drosophila melanogaster, UniProt Q9VYW2); experiment: JHRE-luc reporter in S2 cells with endogenous Met and Gce depleted; pocket mutants inactive; format: cell-based
T2 construct: amino acids 1–716, FLAG-tagged, expressed in S2 cells
T2 sequence (Q9VYW2 1-716): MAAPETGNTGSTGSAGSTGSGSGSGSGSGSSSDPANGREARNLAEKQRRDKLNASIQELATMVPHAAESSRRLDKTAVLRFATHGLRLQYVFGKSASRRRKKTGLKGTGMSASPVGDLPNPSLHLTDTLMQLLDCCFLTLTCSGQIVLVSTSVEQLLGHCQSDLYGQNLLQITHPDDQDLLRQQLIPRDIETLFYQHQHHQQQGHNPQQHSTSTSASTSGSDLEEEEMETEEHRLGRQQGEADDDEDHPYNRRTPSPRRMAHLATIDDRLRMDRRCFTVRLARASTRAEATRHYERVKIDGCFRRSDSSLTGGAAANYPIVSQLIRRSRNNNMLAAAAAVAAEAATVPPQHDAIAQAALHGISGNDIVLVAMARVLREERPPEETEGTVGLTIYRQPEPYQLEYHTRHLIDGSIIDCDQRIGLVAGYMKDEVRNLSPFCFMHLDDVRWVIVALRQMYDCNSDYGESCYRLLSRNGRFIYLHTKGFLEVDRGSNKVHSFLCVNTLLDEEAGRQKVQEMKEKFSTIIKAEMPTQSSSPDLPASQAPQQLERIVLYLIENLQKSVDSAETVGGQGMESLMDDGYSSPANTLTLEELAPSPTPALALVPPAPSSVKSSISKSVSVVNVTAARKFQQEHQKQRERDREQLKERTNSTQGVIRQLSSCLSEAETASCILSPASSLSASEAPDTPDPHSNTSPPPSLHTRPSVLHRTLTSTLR

[3] = biological target: T1, Gce (germ cell-expressed); experiment: competition radioligand binding against [3H]JH III, dextran-coated charcoal assay

| Ki ([3]; read-out: Ki) [nM] | Compound | Ki [3] [nM] | further results |
| --- | --- | --- | --- |
|  | COC(=O)/C=C(\C)CC/C=C(\C)CCC1OC1(C)C (racemic) [JH III] |  | Kd [1]: 19.3 ± 4.5 nM; JHRE-luc reporter activity [2]: Like Gce, Met but not its mutated versions, mediated induction of JHRE-luc by JH III (Fig 3C) |
|  | COC(C)(C)CCC[C@H](C)C/C=C/C(C)=C/C(=O)OC(C)C (racemic) [methoprene] | 45.8 ± 28.9 |  |
| 87.9 ± 22.2 | COC(=O)/C=C(\C)CC/C=C(\C)CCC=C(C)C [methyl farnesoate] |  |  |
|  | CC(COc1ccc(Oc2ccccc2)cc1)Oc1ccccn1 (stereo not drawn) [pyriproxyfen] | 5.7 ± 2.8 |  |
| 8100 ± 2400 | CC(C)=CCC/C(C)=C/CC/C(C)=C/CO [farnesol] |  |  |
